Values of other authors, collected in publication PMC10795913 (The Journal of Clinical Endocrinology and Metabolism, 2023).

Test system: patients
Conditions: different assays, not directly comparable; cited from earlier work

Substance	ADA incidence in published studies
liraglutide	up to 8.7%
semaglutide	up to 4.3%
albiglutide	2.5%
